For the assay, the target named is T1, STK17A (DRAK1) (Homo sapiens, UniProt Q9UEE5).
T1 construct: purchased Thermo Fisher Scientific (Life Technologies) SelectScreen
The assay can be described thus: SelectScreen LanthaScreen. The format is binding. Conditions: read-out: % displacement. The procedure, abridged:
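SelectScreen broad panel; activity (Z'LYTE, Adapta) plus binding formats. ATP: Km app for CSF1R Z'LYTE; 10 for CAMK1 Adapta. Readout = % per kinase.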

The values below come from article PMC6934184, “Selective DNA-PKcs inhibition extends the therapeutic index of localized radiotherapy and chemotherapy” (The Journal of Clinical Investigation, 2019).

T1 sequence (Q9UEE5 whole entry): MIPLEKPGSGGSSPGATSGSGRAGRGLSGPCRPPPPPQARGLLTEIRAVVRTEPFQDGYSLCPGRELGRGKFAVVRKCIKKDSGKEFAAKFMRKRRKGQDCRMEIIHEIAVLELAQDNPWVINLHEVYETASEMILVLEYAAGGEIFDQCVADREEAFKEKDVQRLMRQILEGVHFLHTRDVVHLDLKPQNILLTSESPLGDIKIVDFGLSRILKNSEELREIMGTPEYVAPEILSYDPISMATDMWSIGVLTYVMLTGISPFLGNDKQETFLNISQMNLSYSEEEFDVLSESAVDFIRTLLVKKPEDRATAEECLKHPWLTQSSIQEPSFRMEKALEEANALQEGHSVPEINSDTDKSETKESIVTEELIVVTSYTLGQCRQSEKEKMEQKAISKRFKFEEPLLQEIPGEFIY

Turning to `CN(C(=O)CN1CCOCC1)c1ccc2sc3c(-c4cccc5c(=O)cc(N6CC7CCC(C6)O7)oc45)cccc3c2c1` [NU5455], the inhibition at 1 µM is -6.6%.
